Source: patent publication US10098883B2, “(Aza)pyridopyrazolopyrimidinones and indazolopyrimidinones and their use” (BAYER PHARMA AKTIENGESELLSCHAFT, priority 2013, dated 2018)
Structures can show the parent of a compound that is named as a salt.

What follows are molecules tested on clot lysis (fibrinolysis) in human citrated plasma, tPA-induced (assay: Plasma-based clot lysis assay (5%)). Details: diluted human citrated plasma (platelet-poor, 5%), fibrinogen 3 μM, CaCl2 10 mM, tPA 0.2 nM, 37° C., OD 405 nm.
Assay type: biochemical
In short: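 Compounds in acetic acid/DMSO added to 5% platelet-poor human citrated plasma supplemented with 3 μM fibrinogen, in 20 mM HEPES, 150 mM NaCl, 0.01% Brij, pH 7. Clotting and lysis started with 10 mM CaCl2 plus 0.2 nM tPA at 37 °C and followed kinetically by OD at 405 nm. IC50 derived against blank-control time course.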

Row | Structure (SMILES) | IC50 [nM]
1 | Cc1cc(Br)c2c(c1)nn1c(C3CCNCC3)cc(=O)[nH]c21 [Example 89, 10-Bromo-8-methyl-4-(piperidin-4-yl)pyrimido[1,2-b]indazol-2(1H)-one hydrochloride] | 36
2 | CCOc1ccccc1-c1cccc2nn3c(C4CCNCC4)cc(=O)[nH]c3c12 [Example 93, 10-(2-Ethoxyphenyl)-4-(piperidin-4-yl)pyrimido[1,2-b]indazol-2(1H)-one hydrochloride] | 28
3 | CC(C)Oc1ccccc1-c1cccc2nn3c(C4CCNCC4)cc(=O)[nH]c3c12 [Example 94, 10-(2-Isopropoxyphenyl)-4-(piperidin-4-yl)pyrimido[1,2-b]indazol-2(1H)-one hydrochloride] | 35
4 | COc1cccc(F)c1-c1cccc2nn3c(C4CCNCC4)cc(=O)[nH]c3c12 [Example 97, 10-(2-Fluoro-6-methoxyphenyl)-4-(piperidin-4-yl)pyrimido[1,2-b]indazol-2(1H)-one hydrochloride] | 30
5 | O=c1cc(C2CCNCC2)n2nc3cccc(-n4nccn4)c3c2[nH]1 [Example 98, 4-(Piperidin-4-yl)-10-(2H-1,2,3-triazol-2-yl)pyrimido[1,2-b]indazol-2(1H)-one hydrochloride] | 27
6 | O=c1cc(C2CCNCC2)n2nc3cccc(-n4ccnn4)c3c2[nH]1 [Example 99, 4-(Piperidin-4-yl)-10-(1H-1,2,3-triazol-1-yl)pyrimido[1,2-b]indazol-2(1H)-one hydrochloride] | 29
7 | Cc1ccc(Cl)c2c1nn1c(C3CCNCC3)cc(=O)[nH]c21 [Example 100, 10-Chloro-7-methyl-4-(piperidin-4-yl)pyrimido[1,2-b]indazol-2(1H)-one hydrochloride] | 30
8 | O=c1cc(C2CCNCC2)n2nc3cccc(-c4cnc[nH]4)c3c2[nH]1 [Example 103, 10-(1H-imidazol-5-yl)-4-(piperidin-4-yl)pyrimido[1,2-b]indazol-2(1H)-one hydrochloride] | 110
9 | O=c1cc(C2CCNCC2)n2nc3cccc(-c4ccc[nH]4)c3c2[nH]1 [Example 104, 4-(piperidin-4-yl)-10-(1H-pyrrol-2-yl)pyrimido[1,2-b]indazol-2(1H)-one hydrochloride] | 35
10 | O=c1cc(C2CCNCC2)n2nc3cccc(O)c3c2[nH]1 [Example 105, 10-hydroxy-4-(piperidin-4-yl)pyrimido[1,2-b]indazol-2(1H)-one hydrobromide] | 74
11 | O=C(O)c1cccc2nn3c(C4CCNCC4)cc(=O)[nH]c3c12 [Example 106, 2-oxo-4-(piperidin-4-yl)-1,2-dihydropyrimido[1,2-b]indazole-10-carboxylic acid hydrochloride] | 420
12 | O=c1cc(C2CCNCC2)n2nc3cccc(OCC(F)(F)F)c3c2[nH]1 [Example 107, 4-(piperidin-4-yl)-10-(2,2,2-trifluoroethoxy)pyrimido[1,2-b]indazol-2(1H)-one hydrochloride] | 34

Further lines, results first:

Row | IC50 [nM] | Structure (SMILES)
13 | 24 | O=c1cc(C2CCNCC2)n2nc3ccc(F)c(Cl)c3c2[nH]1 [Example 90, 10-Chloro-9-fluoro-4-(piperidin-4-yl)pyrimido[1,2-b]indazol-2(1H)-one hydrochloride]
14 | 27 | O=c1cc(C2CCNCC2)n2nc3cccc(-n4cncn4)c3c2[nH]1 [Example 91, 4-(Piperidin-4-yl)-10-(1H-1,2,4-triazol-1-yl)pyrimido[1,2-b]indazol-2(1H)-one hydrochloride]
15 | 27 | O=c1cc(C2CCNCC2)n2nc3ccc(F)c(-c4ccccc4F)c3c2[nH]1 [Example 92, 9-Fluoro-10-(2-fluorophenyl)-4-(piperidin-4-yl)pyrimido[1,2-b]indazol-2(1H)-one hydrochloride]
16 | 18 | O=c1cc(C2CCNCC2)n2nc3cccc(-c4ccccc4F)c3c2[nH]1 [Example 95, 10-(2-Fluorophenyl)-4-(piperidin-4-yl)pyrimido[1,2-b]indazol-2(1H)-one]
17 | 26 | O=c1cc(C2CCNCC2)n2nc3cccc(-n4cccn4)c3c2[nH]1 [Example 96, 4-(Piperidin-4-yl)-10-(1H-pyrazol-1-yl)pyrimido[1,2-b]indazol-2(1H)-one hydrochloride]
